Results taken from US20030176314A1, “Compounds for the treatment of pain” (priority 2001, published 2003).
Like-named read-outs stand apart in the source and are kept apart here.

Tests used:
rat NPFF2 receptor = target: T1, rat NPFF2 receptor (Rattus norvegicus, UniProt Q9EQD2); experiment: Functional assay (agonist potency, intrinsic activity) at cloned rat NPFF2 receptor; type: cell-based; conditions: for rNPFF2 IA: Table 7, intrinsic activity; for Functional Activity rNPFF2 I.A. %: percent of maximum response elicited by neuropeptide FF; for EC50: read-out: Functional Activity rNPFF2 EC50
T1 construct: The full-length NPFF2 was amplified from rat spinal cord cDNA; expressed in transfected cells; host or cells: not given
T1 sequence (Q9EQD2 whole entry): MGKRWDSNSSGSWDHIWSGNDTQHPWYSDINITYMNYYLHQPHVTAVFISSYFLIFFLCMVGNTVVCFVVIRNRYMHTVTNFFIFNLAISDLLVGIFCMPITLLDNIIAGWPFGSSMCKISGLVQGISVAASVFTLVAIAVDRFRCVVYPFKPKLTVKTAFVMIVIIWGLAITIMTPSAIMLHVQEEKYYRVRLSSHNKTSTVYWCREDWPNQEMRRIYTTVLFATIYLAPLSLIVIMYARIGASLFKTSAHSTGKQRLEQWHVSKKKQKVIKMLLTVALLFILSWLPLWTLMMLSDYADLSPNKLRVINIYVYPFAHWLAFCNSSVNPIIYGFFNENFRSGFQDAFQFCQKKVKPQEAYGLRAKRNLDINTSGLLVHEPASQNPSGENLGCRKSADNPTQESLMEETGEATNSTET

rat NPFF1 receptor = target: T2, rat NPFF1 receptor (Rattus norvegicus, UniProt Q9EP86); experiment: Functional assay (agonist potency, intrinsic activity) at cloned rat NPFF1 receptor; type: cell-based; conditions: for rNPFF1 IA: Table 7, intrinsic activity; for Functional Activity rNPFF1 I.A. %: percent of maximum response elicited by neuropeptide FF
T2 construct: expressed in transfected cells; host or cells: not given
T2 sequence (Q9EP86 whole entry): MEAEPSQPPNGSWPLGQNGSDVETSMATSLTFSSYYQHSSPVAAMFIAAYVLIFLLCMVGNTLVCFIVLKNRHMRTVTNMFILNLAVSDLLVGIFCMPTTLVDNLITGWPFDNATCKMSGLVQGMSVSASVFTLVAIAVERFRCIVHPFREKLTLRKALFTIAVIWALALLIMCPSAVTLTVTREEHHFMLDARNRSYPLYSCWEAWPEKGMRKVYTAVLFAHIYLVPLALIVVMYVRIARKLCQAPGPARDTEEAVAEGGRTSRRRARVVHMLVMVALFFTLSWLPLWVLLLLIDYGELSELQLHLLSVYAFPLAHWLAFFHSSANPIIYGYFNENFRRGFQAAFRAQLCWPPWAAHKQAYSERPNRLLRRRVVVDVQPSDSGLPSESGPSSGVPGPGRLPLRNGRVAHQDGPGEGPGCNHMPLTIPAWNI

[1] = agonist: IA>15%, antagonist: Ki≦1.2 mM and IA≦15% at the rat cloned NPFF receptors

| SMILES | rNPFF2 IA (rat NPFF2 receptor) | other results |
| --- | --- | --- |
| Cc1ccc2nc(NC(=N)N)nc(C)c2c1 [Compound 1002A, N-(4,6-dimethyl-2-quinazolinyl)guanidine] | 24% NPFF | – |
| Cc1nc(NC(=N)N)nc2ccc(C(C)(C)C)cc12 [Compound 1004A, N-(6-tert-butyl-4-methyl-2-quinazolinyl)guanidine] | 90% NPFF | rNPFF1 IA (rat NPFF1 receptor): 36% NPFF |
| N=C(N)NCCC[C@H](NS(=O)(=O)c1c(F)cccc1F)C(=O)N[C@@H](Cc1ccccc1)C(N)=O [Compound 1004B] | – | Functional Activity rNPFF1 I.A. % (rat NPFF1 receptor; Table 4): 79%; Functional Activity rNPFF2 I.A. % (rat NPFF2 receptor; Table 4): 43%; EC50 (rat NPFF2 receptor; Table 4): > 3160 nM |
| N=C(N)NCCC[C@H](NS(=O)(=O)c1ccc(F)cc1)C(=O)N[C@@H](Cc1ccccc1)C(N)=O [Compound 1005B] | – | Functional Activity rNPFF2 I.A. % (rat NPFF2 receptor; Table 4): 46% |
| Cc1nc(NC(=N)N)nc2cc(OCc3ccccc3)ccc12 [Compound 1006A, N-[7-(benzyloxy)-4-methyl-2-quinazolinyl]guanidine] | 22% NPFF | rNPFF1 IA (rat NPFF1 receptor): 15% NPFF |
| Cc1ccc(S(=O)(=O)N[C@@H](CCCNC(=N)N)C(=O)N[C@@H](Cc2ccccc2)C(N)=O)cc1 [Compound 1007B] | – | Functional Activity rNPFF2 I.A. % (rat NPFF2 receptor; Table 4): 55% |
| CCCc1ccc2nc(NC(=N)N)nc(C)c2c1 [Compound 1008A, N-(4-methyl-6-propyl-2-quinazolinyl)guanidine] | 85% NPFF | – |
| CCCCCCCCc1ccc2nc(NC(=N)N)nc(C)c2c1 [Compound 1009A, N-(4-methyl-6-octyl-2-quinazolinyl)guanidine] | 22% NPFF | EC50 (rat NPFF1 receptor; Table 7, agonist potency, read-out: rNPFF1 EC50): 1490 nM |
| Cc1nc(NC(=N)N)nc2ccc(-c3ccccc3)cc12 [Compound 1010A, N-(4-methyl-6-phenyl-2-quinazolinyl)guanidine] | 22% NPFF | – |
| N=C(N)NCCC[C@H](NS(=O)(=O)c1ccc(Cl)cc1Cl)C(=O)N[C@@H](Cc1ccccc1)C(N)=O [Compound 1010B] | – | Functional Activity rNPFF2 I.A. % (rat NPFF2 receptor; Table 4): 28% |
| CCCCOc1ccc2nc(NC(=N)N)nc(C)c2c1 [Compound 1012A, N-(6-butoxy-4-methyl-2-quinazolinyl)guanidine] | 80% NPFF | – |
| Cc1nc(NC(=N)N)nc2cc(Br)ccc12 [Compound 1014A, N-(7-bromo-4-methyl-2-quinazolinyl)guanidine] | 47% NPFF | – |
| Cc1cc2nc(NC(=N)N)nc(C)c2cc1C [Compound 1015A, N-(4,6,7-trimethyl-2-quinazolinyl)guanidine] | 56% NPFF | – |
| COc1ccc(S(=O)(=O)N[C@@H](CCCNC(=N)N)C(=O)N[C@@H](Cc2ccccc2)C(N)=O)cc1OC [Compound 1015B] | – | Functional Activity rNPFF1 I.A. % (rat NPFF1 receptor; Table 4): 84%; Functional Activity rNPFF2 I.A. % (rat NPFF2 receptor; Table 4): 74% |
| COc1cc2c(C)nc(NC(=N)N)nc2cc1C [Compound 1016A, N-(6-methoxy-4,7-dimethyl-2-quinazolinyl)guanidine] | 74% NPFF | – |
| Cc1cc2nc(NC(=N)N)nc(C)c2cc1O [Compound 1017A, N-(6-hydroxy-4,7-dimethyl-2-quinazolinyl)guanidine] | 23% NPFF | – |
| Cc1nc(NC(=N)N)nc2cc(F)c(F)cc12 [Compound 1019A, N-(6,7-difluoro-4-methyl-2-quinazolinyl)guanidine] | 31% NPFF | – |
| N=C(N)NCCC[C@H](NS(=O)(=O)c1c(Cl)cccc1Cl)C(=O)N[C@@H](Cc1ccccc1)C(N)=O [Compound 1019B] | – | classification as agonist or antagonist at the NPFF1 receptor (rat NPFF1 receptor; [1]): agonists; classification as agonist or antagonist at the NPFF2 receptor (rat NPFF2 receptor; [1]): agonists |
| Cc1nc(NC(=N)N)nc2cc(C(C)C)ccc12 [Compound 1021A, N-(7-isopropyl-4-methyl-2-quinazolinyl)guanidine] | 76% NPFF | – |

| SMILES | rNPFF2 IA (rat NPFF2 receptor) | other results |
| --- | --- | --- |
| N=C(N)NCCC[C@H](NS(=O)(=O)c1ccc(Cl)c(Cl)c1)C(=O)N[C@@H](Cc1ccccc1)C(N)=O [Compound 1022B] | – | Functional Activity rNPFF1 I.A. % (rat NPFF1 receptor; Table 4): 86%; EC50 (rat NPFF1 receptor; Table 4, read-out: Functional Activity rNPFF1 EC50): 1860 nM; Functional Activity rNPFF2 I.A. % (rat NPFF2 receptor; Table 4): 34%; EC50 (rat NPFF2 receptor; Table 4): > 3160 nM |
| Cc1nc(NC(=N)N)nc2cc(OC(C)C)ccc12 [Compound 1025A, N-[4-methyl-7-(isopropoxy)-2-quinazolinyl]guanidine] | 27% NPFF | – |
| Cc1nc(NC(=N)N)nc2ccc(Br)cc12 [Compound 1026A, N-(6-bromo-4-methyl-2-quinazolinyl)guanidine] | 19% NPFF | – |
| N=C(N)NCCC[C@H](NS(=O)(=O)c1ccccc1[N+](=O)[O-])C(=O)N[C@@H](Cc1ccccc1)C(N)=O [Compound 1026B] | – | Functional Activity rNPFF1 I.A. % (rat NPFF1 receptor; Table 4): 79%; Functional Activity rNPFF2 I.A. % (rat NPFF2 receptor; Table 4): 59% |
| N#Cc1ccccc1S(=O)(=O)N[C@@H](CCCNC(=N)N)C(=O)N[C@@H](Cc1ccccc1)C(N)=O [Compound 1027B] | – | Functional Activity rNPFF1 I.A. % (rat NPFF1 receptor; Table 4): 52%; Functional Activity rNPFF2 I.A. % (rat NPFF2 receptor; Table 4): 48% |
| Cc1nc(NC(=N)N)nc2ccc(OCc3ccccc3)cc12 [Compound 1028A, N-[6-(benzyloxy)-4-methyl-2-quinazolinyl]guanidine] | 79% NPFF | – |
| N=C(N)NCCC[C@@H](NS(=O)(=O)c1ccc(F)cc1)C(=O)N[C@@H](Cc1ccccc1)C(N)=O [Compound 1028B] | – | Functional Activity rNPFF1 I.A. % (rat NPFF1 receptor; Table 5): 46%; Functional Activity rNPFF2 I.A. % (rat NPFF2 receptor; Table 5): 62% |
| Cc1nc(NC(=N)N)nc2ccc(OC(F)(F)F)cc12 [Compound 1030A, N-[4-methyl-6-(trifluoromethoxy)-2-quinazolinyl]guanidine] | 85% NPFF | – |
| CCCCCOc1ccc2nc(NC(=N)N)nc(C)c2c1 [Compound 1031A, N-[4-methyl-6-(pentyloxy)-2-quinazolinyl]guanidine] | 66% NPFF | – |
| Cc1ccc(Oc2ccc3nc(NC(=N)N)nc(C)c3c2)cc1 [Compound 1033A, N-[4-methyl-6-(4-methylphenoxy)-2-quinazolinyl]guanidine] | 51% NPFF | – |
| Cc1nc(NC(=N)N)nc2cc(C(C)O)ccc12 (stereo not drawn) [Compound 1035A, N-[7-(1-hydroxyethyl)-4-methyl-2-quinazolinyl]guanidine] | 52% NPFF | – |
| Cc1nc(NC(=N)N)nc2cc(OC(F)(F)F)ccc12 [Compound 1036A, N-[4-methyl-7-(trifluoromethoxy)-2-quinazolinyl]guanidine] | 78% NPFF | – |
| Cc1nc(NC(=N)N)nc2cc3c(cc12)C=CCC3 [Compound 1037A, N-(4-methyl-8,9-dihydrobenzo[g]quinazolin-2-yl)guanidine] | 71% NPFF | – |
| Cc1ccc2nc(NC(=N)N)cc(C)c2c1 [Compound 4001A, N-(4,6-dimethyl-2-quinolinyl)guanidine] | 68% NPFF | – |
| Cc1cc(NC(=N)N)nc2ccc(-c3ccccc3)cc12 [Compound 4003A, N-(4-methyl-6-phenyl-2-quinolinyl)guanidine] | 26% NPFF | – |
| COc1ccc2nc(NC(=N)N)cc(C)c2c1 [Compound 4004A, N-(6-methoxy-4-methyl-2-quinolinyl)guanidine] | 65% NPFF | – |
| Cc1cc(NC(=N)N)nc2cc(F)ccc12 [Compound 4007A, N-(7-fluoro-4-methyl-2-quinolinyl)guanidine] | 17% NPFF | – |
| Cc1cc(C)c2c(C)cc(NC(=N)N)nc2c1 [Compound 4008A, N-(4,5,7-trimethyl-2-quinolinyl)guanidine] | 65% NPFF | – |
| Cc1cc(NC(=N)N)nc2ccc3ccccc3c12 [Compound 4009A, N-(1-methylbenzo[f]quinolin-3-yl)guanidine] | 70% NPFF | – |
